Data reported in paper PMC11277992, “New Zosteropenillines and Pallidopenillines from the Seagrass-Derived Fungus Penicillium yezoense KMM 4679” (Marine Drugs, 2024).
Like-named read-outs stand apart in the source and are kept apart here.

Legend:
[1] = system: CoCl2-treated HEK-293 cells; experiment: Lipid peroxidation level (MitoCLox) in CoCl2-treated cells; assay type: cell-based, human; conditions: toxic effect of CoCl2; MitoCLox fluorescence dye
Method: The fluorescence probe MitoCLox (Lumiprobe, Moscow, Russia) was used for the detection of the lipid peroxidation level in CoCl2-treated cells. It was added in the cells for 1 h at a concentration of 200 nM. After 1 h, the cells were washed with PBS and fluorescence was measured in ratiometric mode with λem = 520/590 nm using a PHERAStar FS plate reader (BMG Labtech, Offenburg, Germany). The data were processed with MARS Data Analysis v. 3.01R2 (BMG Labtech, Offenburg, Germany) and calculated as a 520/590 ratio.

[2] = system: CoCl2-treated HEK-293 cells; experiment: Cytoprotective activity, CoCl2-mimic hypoxia, cell viability (MTT); assay type: cell-based, human; conditions: CoCl2 at 500 µM for 24 h
Method: The HEK-293 cells were exposed to cobalt chloride (II) at a 500 µM for 1 h and then the compounds were added. After 24 h, the viability of the cells was measured via MTT assay as described earlier.

[3] = system: breast MCF-7 cancer cells; experiment: Cytotoxic activity (MTT assay); assay type: cell-based, human; conditions: for Cell Viability, % of Control, MCF-7: 100 µM, 24 h, MTT; for IC50: Homo sapiens
Method: (§1) The influence of compounds 1, 2 and 4–14 on the viability of normal human kidney […] cells, as well as human prostate PC-3, cervical HeLa and breast MCF-7 cancer cells, was measured using the MTT assay after 24 h of treatment.
(§2) PC-3 cells (5 × 10^3 cells/well) and HEK 293 cells (8 × 10^3 cells/well) were seeded in a 96-well plate and incubated overnight. […] Cell viability was then determined by the MTT (3-(4,5-dimethylthiazol-2-yl)-2,5-diphenyltetrazolium bromide) method according to the manufacturer’s instructions (Sigma-Aldrich, St. Louis, MO, USA). The absorbance of the converted formazan was measured using a Multiskan FC microplate photometer (Thermo Scientific, Waltham, MA, USA) at λ = 570 nm. The results are presented as percentages of the control data.

[4] = system: Staphylococcus aureus ATCC 21027; experiment: Antimicrobial activity, microbial growth in broth (OD620); assay type: cell-based; conditions: ATCC21027, compound at 100 µM, read-out: Inhibition of Microbial Growth, % of Control, S. aureus
Method: (§3) The yeast-like fungus Candida albicans KMM 455 and bacterial strains Staphylococcus aureus ATCC 21027 and Escherichia coli VKPM (B-7935) (Collection of Marine Microorganisms PIBOC FEB RAS) were cultured on solid-medium Mueller–Hinton broth with agar (16.0 g/L) in a Petri dish at 37 °C for 24 h. The assays were performed in 96-well microplates in an appropriate Mueller–Hinton broth. Each well contained 90 µL of a bacterial or yeast-like fungal suspension (10^6 CFU/mL). Then, 10 µL was added of a compound diluted at concentrations from 1.5 µM to 100.0 µM using twofold dilution (DMSO concentration < 1%). Culture plates were incubated overnight at 37 °C, and the OD620 was measured using a Multiskan FC spectrophotometer (Thermo Scientific Inc., Beverly, MA, USA). The antibiotic gentamicin and antifungal agent nitrofungin were used as positive controls at 1 mg/mL; 1% DMSO in PBS served as a negative control. Examination was performed twice and in triplicate. The results were calculated as a percentage of the control data using SigmaPlot 14.0 software.

Candida albicans KMM 455 = experiment: as above; assay type: cell-based; conditions: Candida albicans, KMM455; compound at 100 µM; read-out: Inhibition of Microbial Growth, % of Control, C. albicans
Method: as §3

[5] = system: Escherichia coli VKPM (B-7935); experiment: as above; assay type: cell-based; conditions: compound at 100 µM, read-out: Inhibition of Microbial Growth, % of Control, E. coli
Method: as §3

[6] = system: normal human kidney cells; experiment: Cytotoxic activity (MTT assay); assay type: cell-based; conditions: 100 µM, 24 h
Method: as §1
(§4) The human prostate cancer cells PC-3 and CRL-1435 and the human embryonic kidney cells HEK-293 and CRL-1573TM were purchased from the American Type Culture Collection (ATCC; Manassas, VA, USA). PC-3 and HEK-293 cells were cultured in DMEM medium containing 10% fetal bovine serum (Biolot, St. Petersburg, Russia) and 1% penicillin/streptomycin (Biolot, St. Petersburg, Russia) at 37 °C in a humidified atmosphere with 5% (v/v) CO2. The cells were incubated in cultural flasks until sub-confluent (~80%).
PC-3 cells (5 × 10^3 cells/well) and HEK 293 cells (8 × 10^3 cells/well) were seeded in a 96-well plate and incubated overnight. Then, compounds were added at concentrations of 1–100 μM and incubated for another 24 h. Cell viability was then determined by the MTT (3-(4,5-dimethylthiazol-2-yl)-2,5-diphenyltetrazolium bromide) method according to the manufacturer’s instructions (Sigma-Aldrich, St. Louis, MO, USA). The absorbance of the converted formazan was measured using a Multiskan FC microplate photometer (Thermo Scientific, Waltham, MA, USA) at λ = 570 nm. The results are presented as percentages of the control data.

[7] = system: autophagy-related cargo protein p62; parameters: method as in PMID 28218691; conditions: PC-3 cells; cited from earlier work
[8] = system: human prostate PC-3 cancer cells; experiment: Cytotoxic activity (MTT assay); assay type: cell-based; conditions: for Cell Viability, % of Control, PC-3: 100 µM, 24 h, MTT; for IC50: Homo sapiens
Method: as §4, §2

[9] = system: cervical HeLa cancer cells; experiment: Cytotoxic activity (MTT assay); assay type: cell-based, human; conditions: for Cell Viability, % of Control, HeLa: 100 µM, MTT; for IC50: Homo sapiens, HeLa
[10] = system: LPS-stimulated RAW264.7 murine macrophages; parameters: method as in PMID 28218691; conditions: cited from earlier work
HeLa cells [11] = experiment: Migration (scratch) assay; assay type: cell-based, human; conditions: 24 h
PC-3 cells [12] = experiment: Migration (scratch) assay; assay type: cell-based, human; conditions: 24 h
Method: Silicone 2-well inserts (Ibidi®, Gräfelfing, Germany) were used for formation of a free cell zone in the PC-3 cells’ monolayer. After removing the insert, the gap between the cells was 500 ± 50 μm. The cells were washed twice with PBS after removing the inserts and staining with (5,6)-carboxyfluorescein succinimidyl ester (CFDA SE) (Lumiprobe, Moscow, Russia) fluorescence dye. Then, cells were treated with compound or culture medium only (vehicle control) for 24 h. Cell migration into the wound area was observed under a fluorescence microscope (MIB-2-FL; LOMO, St. Petersburg, Russia) with objective 10× magnification.

MCF-7 cells [13] = experiment: Migration (scratch) assay; assay type: cell-based, human; conditions: 24 h
MCF-7 cells [14] = experiment: Drug combination study with doxorubicin (MTT); assay type: cell-based, human; conditions: 24 h
PC-3 cells [15] = experiment: Colony formation (clonogenic) assay; assay type: cell-based; conditions: Homo sapiens, PC-3, 240 h; 10 days; read-out: half-maximal concentration of the inhibition of PC-3 colony formation
Method: The influence of compounds on colony formation by PC-3 cells was tested by the clonogenic assay. The concentration of PC-3 cells was 0.33 × 10^3/mL. The cells were incubated for 10 days, and then they were fixed with methanol (25 min), staining with 0.5% solution of crystal violet (25 min) and washing with PBS. The counting of grown colonies was carried out using a BIO-PRINT-Cx4 Edge-Fixed Pad-Container (Vilber, Collegien, France) using Bio-Vision Software user and service manual-v18.01 (Vilber, Collegien, France). The results are presented as colony inhibition in comparison with the control.

MCF-7 cells [16] = experiment: Cell viability after pretreatment with 4-OHT (estrogen receptor inhibitor); assay type: cell-based, human; conditions: 14 at 75 µM, 4-OHT at 10 µM
Method: (§5) To detect the possible target of 14, we used 4-hydroxytamoxifen (4-OHT) at a concentration of 10 µM as a known inhibitor of estrogen receptors (ERs), and the data are presented in Figure 14.
(§6) Figure 14 The influence of 14 (at a 75 µM) on cell viability in the presence of 4-OHT (at 10 µM). Data are presented as the mean ± SEM. * p-value ≤ 0.05 considered significant.

HeLa cells [17] = experiment: as above; assay type: cell-based, human; conditions: 14 at 75 µM, 4-OHT at 10 µM
Method: as §5, §6

PC-3 cells [18] = experiment: as above; assay type: cell-based, human; conditions: 14 at 75 µM, 4-OHT at 10 µM
Method: as §5, §6

HeLa cells [19] = experiment: Colony formation (clonogenic) assay; assay type: cell-based; conditions: Homo sapiens, 240 h, 10 days, read-out: half-maximal concentration of the inhibition of HeLa colony formation
MCF-7 cells [20] = experiment: Colony formation (clonogenic) assay; assay type: cell-based; conditions: Homo sapiens, MCF7, 240 h; 10 days; read-out: half-maximal concentration of the inhibition of MCF-7 colony formation

| Compound | Cell Viability, % of Control, MCF-7 [3] | inhibition of growth at 100 µM [4] [%] | inhibition of growth at 100 µM (Candida albicans KMM 455) [%] | inhibition of growth at 100 µM [5] [%] | Cell Viability, % of Control, HEK-298 [6] | effect on autophagy-related cargo protein p62 [7] | Cell Viability, % of Control, PC-3 [8] | Cell Viability, % of Control, HeLa ([9]; 24 h) | effect on NO levels [10] | other results |
| --- | --- | --- | --- | --- | --- | --- | --- | --- | --- | --- |
| [Cl-].[Cl-].[Co+2] [CoCl2, cobalt (II) chloride, reference compound] | – | – | – | – | – | – | – | – | – | lipid peroxide levels in HEK-293 cells [1]: significant increase; decrease of the viability of HEK-293 cells [2]: 75% |
| C[C@H]1CC[C@@H]2[C@@H](C(=O)CCO)[C@](C)(O)C=C[C@H]2C1 [Compound 11, zosteropenilline G] | 81.00 ± 2.38 % of Control | 16.9 ± 4.12 | 18.1 ± 2.58 | 0 | 93.97 ± 2.36 % of Control | upregulators | 93.97 ± 2.36 % of Control | 34.35 ± 1.90 % of Control | – | IC50 ([9]; 24 h, read-out: IC50, HeLa cell viability): 79.7 µM |
| C[C@@]1(O)C=C[C@H]2C[C@@H](CO)CC[C@@H]2[C@H]1C(=O)CCO [Compound 12, zosteropenilline J] | 82.77 ± 1.36 % of Control | 20.3 ± 1.2 | 6.61 ± 1.12 | 0 | 87.01 ± 2.71 % of Control | – | 87.01 ± 2.71 % of Control | 66.70 ± 6.64 % of Control | downregulate | – |
| CC(=O)OCCC(=O)[C@@H]1[C@H]2CC[C@H](C)[C@@H](O)[C@@H]2C=C[C@@]1(C)O [Compound 14, 1-acetylpallidopenilline A] | 23.71 ± 1.05 % of Control | 31.6 ± 7.8 | 0 | 0 | 96.92 ± 4.83 % of Control | – | 45.91 ± 0.67 % of Control | 53.44 ± 2.14 % of Control | – | IC50 ([3]; MCF7, 24 h, read-out: half-maximal inhibition of the viability of MCF-7 cells): 72 ± 2.48 µM; IC50 ([3]; MCF7, 48 h, read-out: IC50, MCF-7 cells): 54.7 µM; IC50 ([3]; MCF7, 72 h, read-out: IC50, MCF-7 cells): 41 µM; migration of HeLa cells (HeLa cells [11]): significantly inhibited; migration of PC-3 cells (PC-3 cells [12]): did not affect; migration of MCF-7 cells (MCF-7 cells [13]): significantly inhibited; decrease of MCF-7 cell viability (MCF-7 cells [14]; combination of 14 with doxorubicin at 0.1 µM): 50%; toxicity to MCF-7 cells compared with doxorubicin alone (MCF-7 cells [14]; combination of 14 with doxorubicin at 1 µM): more toxic; IC50 (PC-3 cells [15]): 2.48 ± 0.11 µM; cytotoxicity of 14 after pretreatment with 4-OHT versus 14 alone (MCF-7 cells [16]): significant decrease in the cytotoxicity; cytotoxicity of 14 after pretreatment with 4-OHT versus 14 alone (HeLa cells [17]): No significant differences; cytotoxicity of 14 after pretreatment with 4-OHT versus 14 alone (PC-3 cells [18]): No significant differences; IC50 ([8]; PC-3, 24 h, read-out: IC50, PC-3 cell viability): 94.2 ± 1.13 µM; IC50 ([8]; PC-3, 48 h, read-out: IC50, PC-3 cells): 63.4 µM; IC50 ([8]; PC-3, 72 h, read-out: IC50, PC-3 cells): 48.5 µM; IC50 ([9]; 48 h, read-out: IC50, HeLa cells): 82.7 µM; IC50 ([9]; 72 h, read-out: IC50, HeLa cells): 73.2 µM; IC50 (HeLa cells [19]): 0.96 ± 0.02 µM; IC50 (MCF-7 cells [20]): 0.66 µM |
| C[C@H]1CC[C@H]2[C@@H](C=C[C@]3(C)OCCC(=O)[C@H]23)[C@@H]1O [zosteropenilline A] | – | – | – | – | – | upregulators | – | – | – | – |
| C[C@]12C=C[C@H]3C[C@@H](CO)CC[C@@H]3[C@H]1C(=O)CCO2 [zosteropenilline B] | – | – | – | – | – | – | – | – | downregulate | – |
| C[C@@]1(O)CC[C@@H]2[C@H]3C(=O)CCO[C@@]3(C)C=C[C@H]2C1 [zosteropenilline C] | – | – | – | – | – | upregulators | – | – | – | – |
| CC1=C[C@H](O)[C@H]2[C@H](O)[C@@H](C)CC[C@@H]2[C@H]1C(=O)CCO [zosteropenilline H] | – | – | – | – | – | – | – | – | downregulate | – |
